Laboratory results published in PubChem BioAssay AID248 (DTP/NCI, 2004).
Values joined by “and” are separate entries in the source; they are usually repeats but may differ in a detail not shown here. Identical values can stand only once. Toxic doses and inconclusive results are not listed. Rule as the data show it: active = T/C of 150% or more; inactive = T/C below 125%.

System: L1210 leukemia ip in BDF1 mice, survival T/C
Assay: NCI In Vivo Anticancer Drug Screen. Data for tumor model L1210 Leukemia (intraperitoneal) in B6D2F1 (BDF1) mice
Details: higher = longer survival
Summary of the method: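 Ratio derived from survival: compound-dosed mice over vehicle-dosed mice, all bearing a transplantable tumor.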

Measured: T/C

Cc1ccc(S(=O)(=O)NC(C)(C)CN)cc1
inactive: endpoint: mean survival time, dose: 75.0 mg/kg/injection, schedule: Q01DX001 (ip), vehicle: other 103 % of control | endpoint: mean survival time, dose: 150.0 mg/kg/injection, schedule: Q01DX001 (ip), vehicle: other 101 % of control | endpoint: mean survival time, dose: 300.0 mg/kg/injection, schedule: Q01DX001 (ip), vehicle: other 95 % of control

C[C@@H]1C[C@@H]([C@H](O)CC2CC(=O)NC(=O)C2)C(=O)[C@@H](C)C1
inactive: endpoint: mean survival time, dose: 1.5 mg/kg/injection, schedule: Q01DX009 (ip), vehicle: saline with Tween-80 109 % of control | endpoint: mean survival time, dose: 4.31 mg/kg/injection, schedule: Q01DX Z (ip), vehicle: carboxymethylcellulose (CMC) 104 % of control | endpoint: mean survival time, dose: 5.0 mg/kg/injection, schedule: Q01DX010 (ip), vehicle: saline 103 % of control and 107 % of control | endpoint: mean survival time, dose: 7.5 mg/kg/injection, schedule: Q01DX Z (ip), vehicle: carboxymethylcellulose (CMC) 97 % of control and 100 % of control | endpoint: mean survival time, dose: 8.63 mg/kg/injection, schedule: Q01DX Z (ip), vehicle: carboxymethylcellulose (CMC) 102 % of control | endpoint: mean survival time, dose: 10.0 mg/kg/injection, schedule: Q01DX009 (ip), vehicle: acetone 106 % of control | endpoint: mean survival time, dose: 10.0 mg/kg/injection, schedule: Q01DX010 (ip), vehicle: saline 104 % of control and 108 % of control | endpoint: mean survival time, dose: 12.5 mg/kg/injection, schedule: Q01DX Z (ip), vehicle: carboxymethylcellulose (CMC) 108 % of control | endpoint: mean survival time, dose: 15.0 mg/kg/injection, schedule: Q01DX009 (ip), vehicle: Klucel (hydroxypropylcellulose) (HPC) 114 % of control | endpoint: mean survival time, dose: 15.0 mg/kg/injection, schedule: Q01DX009 (ip), vehicle: saline 123 % of control | endpoint: mean survival time, dose: 15.0 mg/kg/injection, schedule: Q01DX Z (ip), vehicle: carboxymethylcellulose (CMC) 108 % of control and 116 % of control | endpoint: mean survival time, dose: 16.0 mg/kg/injection, schedule: Q01DX015 (ip), vehicle: saline 119 % of control | endpoint: mean survival time, dose: 17.25 mg/kg/injection, schedule: Q01DX Z (ip), vehicle: carboxymethylcellulose (CMC) 103 % of control | endpoint: mean survival time, dose: 18.0 mg/kg/injection, schedule: Q01DX015 (ip), vehicle: saline 119 % of control | endpoint: mean survival time, dose: 20.0 mg/kg/injection, schedule: Q01DX009 (ip), vehicle: acetone 119 % of control | endpoint: mean survival time, dose: 20.0 mg/kg/injection, schedule: Q01DX010 (ip), vehicle: saline 110 % of control and 114 % of control | endpoint: mean survival time, dose: 24.3 mg/kg/injection, schedule: Q02DX010 (ip), vehicle: carboxymethylcellulose (CMC) 97 % of control | endpoint: mean survival time, dose: 25.0 mg/kg/injection, schedule: Q01DX Z (ip), vehicle: carboxymethylcellulose (CMC) 106 % of control | endpoint: mean survival time, dose: 25.0 mg/kg/injection, schedule: Q02DX010 (ip), vehicle: other 112 % of control | endpoint: mean survival time, dose: 27.0 mg/kg/injection, schedule: Q01DX015 (ip), vehicle: saline 107 % of control | endpoint: mean survival time, dose: 30.0 mg/kg/injection, schedule: Q01DX009 (ip), vehicle: Klucel (hydroxypropylcellulose) (HPC) 113 % of control | endpoint: mean survival time, dose: 30.0 mg/kg/injection, schedule: Q01DX009 (ip), vehicle: saline with Tween-80 121 % of control | endpoint: mean survival time, dose: 30.0 mg/kg/injection, schedule: Q04DX003 (ip), vehicle: Klucel (hydroxypropylcellulose) (HPC) 108 % of control | endpoint: mean survival time, dose: 32.0 mg/kg/injection, schedule: Q## X004 (ip), vehicle: saline 97 % of control | endpoint: mean survival time, dose: 34.5 mg/kg/injection, schedule: Q01DX Z (ip), vehicle: carboxymethylcellulose (CMC) 121 % of control | endpoint: mean survival time, dose: 36.0 mg/kg/injection, schedule: Q01DX015 (ip), vehicle: saline 115 % of control | endpoint: mean survival time, dose: 37.5 mg/kg/injection, schedule: Q02DX008 (ip), vehicle: saline 108 % of control | endpoint: mean survival time, dose: 38.0 mg/kg/injection, schedule: Q02DX010 (ip), vehicle: other 120 % of control | endpoint: mean survival time, dose: 40.0 mg/kg/injection, schedule: Q01DX010 (ip), vehicle: saline 109 % of control and 116 % of control | endpoint: mean survival time, dose: 42.0 mg/kg/injection, schedule: Q## X032 (ip), vehicle: saline 113 % of control | endpoint: mean survival time, dose: 44.0 mg/kg/injection, schedule: Q01DX001 (ip), vehicle: saline 103 % of control | endpoint: mean survival time, dose: 45.0 mg/kg/injection, schedule: Q01DX Z (ip), vehicle: methylcellulose (MC) 106 % of control | endpoint: mean survival time, dose: 45.0 mg/kg/injection, schedule: Q04DX003 (ip), vehicle: saline 106 % of control | endpoint: mean survival time, dose: 48.0 mg/kg/injection, schedule: Q## X004 (ip), vehicle: saline 96 % of control | endpoint: mean survival time, dose: 50.0 mg/kg/injection, schedule: Q01DX Z (ip), vehicle: carboxymethylcellulose (CMC) 118 % of control | endpoint: mean survival time, dose: 56.0 mg/kg/injection, schedule: Q02DX008 (ip), vehicle: saline 115 % of control | endpoint: mean survival time, dose: 60.0 mg/kg/injection, schedule: Q01DX009 (ip), vehicle: saline 102 % of control | endpoint: mean survival time, dose: 60.0 mg/kg/injection, schedule: Q01DX Z (ip), vehicle: methylcellulose (MC) 106 % of control | endpoint: mean survival time, dose: 60.0 mg/kg/injection, schedule: Q04DX003 (ip), vehicle: Klucel (hydroxypropylcellulose) (HPC) 122 % of control | endpoint: mean survival time, dose: 64.0 mg/kg/injection, schedule: Q## X032 (ip), vehicle: saline 106 % of control and 110 % of control | endpoint: mean survival time, dose: 67.0 mg/kg/injection, schedule: Q01DX001 (ip), vehicle: saline 115 % of control | endpoint: mean survival time, dose: 72.0 mg/kg/injection, schedule: Q## X004 (ip), vehicle: saline 112 % of control | endpoint: mean survival time, dose: 80.0 mg/kg/injection, schedule: Q01DX001 (ip), vehicle: alkali diluted with saline 107 % of control | endpoint: mean survival time, dose: 81.0 mg/kg/injection, schedule: Q01DX015 (ip), vehicle: saline 123 % of control | endpoint: mean survival time, dose: 85.5 mg/kg/injection, schedule: Q02DX010 (ip), vehicle: other 117 % of control | endpoint: mean survival time, dose: 90.0 mg/kg/injection, schedule: Q01DX009 (ip), vehicle: saline 97 % of control | endpoint: mean survival time, dose: 90.0 mg/kg/injection, schedule: Q04DX003 (ip), vehicle: saline 101 % of control | endpoint: mean survival time, dose: 96.0 mg/kg/injection, schedule: Q## X032 (ip), vehicle: saline 106 % of control and 115 % of control | endpoint: mean survival time, dose: 100.0 mg/kg/injection, schedule: Q01DX001 (ip), vehicle: saline 114 % of control | endpoint: mean survival time, dose: 100.0 mg/kg/injection, schedule: Q01DX009 (ip), vehicle: saline with Tween-80 100 % of control | endpoint: mean survival time, dose: 100.0 mg/kg/injection, schedule: Q01DX Z (ip), vehicle: carboxymethylcellulose (CMC) 117 % of control | endpoint: mean survival time, dose: 100.0 mg/kg/injection, schedule: Q04DX003 (ip), vehicle: saline with Tween-80 112 % of control | endpoint: mean survival time, dose: 108.0 mg/kg/injection, schedule: Q## X004 (ip), vehicle: saline 106 % of control | endpoint: mean survival time, dose: 120.0 mg/kg/injection, schedule: Q01DX001 (ip), vehicle: alkali diluted with saline 106 % of control | endpoint: mean survival time, dose: 120.0 mg/kg/injection, schedule: Q01DX009 (ip), vehicle: Klucel (hydroxypropylcellulose) (HPC) 96 % of control | endpoint: mean survival time, dose: 120.0 mg/kg/injection, schedule: Q01DX009 (ip), vehicle: saline with Tween-80 116 % of control | endpoint: mean survival time, dose: 126.0 mg/kg/injection, schedule: Q02DX008 (ip), vehicle: saline 112 % of control | endpoint: mean survival time, dose: 128.25 mg/kg/injection, schedule: Q02DX010 (ip), vehicle: other 74 % of control | endpoint: mean survival time, dose: 144.0 mg/kg/injection, schedule: Q## X032 (ip), vehicle: saline 118 % of control and 123 % of control | endpoint: mean survival time, dose: 162.0 mg/kg/injection, schedule: Q## X004 (ip), vehicle: saline 110 % of control | endpoint: mean survival time, dose: 180.0 mg/kg/injection, schedule: Q01DX001 (ip), vehicle: alkali diluted with saline 103 % of control | endpoint: mean survival time, dose: 180.0 mg/kg/injection, schedule: Q04DX003 (ip), vehicle: saline 97 % of control | endpoint: mean survival time, dose: 189.0 mg/kg/injection, schedule: Q02DX008 (ip), vehicle: saline 114 % of control | endpoint: mean survival time, dose: 200.0 mg/kg/injection, schedule: Q04DX003 (ip), vehicle: saline with Tween-80 103 % of control | endpoint: mean survival time, dose: 216.0 mg/kg/injection, schedule: Q## X032 (ip), vehicle: saline 113 % of control and 117 % of control | endpoint: mean survival time, dose: 240.0 mg/kg/injection, schedule: Q04DX003 (ip), vehicle: Klucel (hydroxypropylcellulose) (HPC) 116 % of control | endpoint: mean survival time, dose: 320.0 mg/kg/injection, schedule: Q## X032 (ip), vehicle: saline 110 % of control | endpoint: median survival time, dose: 25.0 mg/kg/injection, schedule: Q04DX003 (ip), vehicle: alkali diluted with saline 103 % of control | endpoint: median survival time, dose: 50.0 mg/kg/injection, schedule: Q04DX003 (ip), vehicle: alkali diluted with saline 106 % of control | endpoint: median survival time, dose: 100.0 mg/kg/injection, schedule: Q04DX003 (ip), vehicle: alkali diluted with saline 103 % of control | endpoint: median survival time, dose: 200.0 mg/kg/injection, schedule: Q04DX003 (ip), vehicle: alkali diluted with saline 106 % of control
